Results taken from patent EP1977759A1, “Pharmaceutical composition comprising a cytokine” (4SC AG, priority 2007, dated 2008).

Key:
[1] = tested on: bovine viral diarrhea virus (BVDV) NADL strain; assay: BVDV antiviral efficacy evaluation, drug-drug combination analysis (checkerboard, MTS staining, MacSynergy II); format: cell-based; settings: in combination with TNF-α; MDBK cells with BVDV virus; interaction by Bliss independence (MacSynergy II)
Method: (§1) The substances were solubilized in DMSO. […]
(§2) The bovine viral diarrhea virus (BVDV) NADL strain antiviral evaluation assay and drug-drug combination analysis was performed as described in Antimicro. Agents Chemother. 2003; 47: 2293-8. BVDV is frequently employed as a hepatitis C virus surrogate model in the study of antiviral agents (Antiviral Res. 2003; 60: 1-15). Madin-Darby bovine kidney cells were trypsinized, pelleted, counted and resuspended at 1×10^4/well in tissue culture medium in 96-well flat bottom, tissue culture plates in volume of 100µl per well. […]
(§3) At assay termination, the assay plates were stained with the soluble tetrazolium-based dye MTS (CellTiter Reagent Promega) to determine cell viability and quantify compound toxicity. MTS is metabolized y the mitochondrial enzymes of metabolically active cells to yield a soluble formazan product, allowing the rapid quantitative analysis of cell viability and compound cytotoxicity. […] Adhesive sealers were used in place of the lids, the sealed plate was inverted several times to mix the soluble formazan product and the plate was read spectrophotometrically at 490 nm and 650 nm with a Molecular Devices Vmax plate reader. […]
(§4) Theoretical additive values are calculated from the dose response curves for each substance used individually. […]

[2] = tested on: Madin-Darby bovine kidney cells; assay: BVDV assay, cytotoxicity of the drug-drug combination (MTS staining for cell viability); format: cell-based; settings: in combination with TNF-α; MDBK cells; interaction by Bliss independence (MacSynergy II)
Method: as §1, §2, §3, §4

SMILES: O=C(c1ccccc1)c1ccc2nc(NC(=O)c3csc(C4CCN(c5ncnc6ccsc56)CC4)n3)[nH]c2c1 [Compound 273, 2-(1-Thieno[3,2-d]pyrimidin-4-yl-piperidin-4-yl)-thiazole-4-carboxylic acid (5-b enzoyl-1H-benzaimidazol-2-yl)-amide]
- combined antiviral activity [1]: highly synergistic behaviour
- combined cytotoxic activity [2]: highly antagonistic behaviour
